A short description of data set [1]: Assay of solubility (37° C., 24 hours stirring, HPLC). The format is physicochemical. How it is done: Assay method: The crystal form C of the compound of formula (I) was weighed and added to a 4 mL glass vial, and then 2 mL of solvent was added. The mixture was mixed well and a magnet bar was added to the above suspension. The suspension was stirred on a heater with magnetic stirring (37° C., protected from light). After 24 hours of stirring, a sample was taken. The resulting sample solution was quickly centrifuged. The supernatant was diluted to the appropriate multiple, and the concentration was determined by HPLC (unit: mg/mL).

Data set [2] is described as follows: In vivo pharmacokinetic assay in rats. Details: species or system SD male rats. How it is done: SD male rats aged 7 to 10 weeks were selected. The rats were fasted for at least 12 hours before the administration, and resumed feeding 4 hours after the administration. The rats had free access to water throughout the assay period.
(§1) On the day of the assay, the animals in the intravenous group were administrated the corresponding compound through a single injection in the tail vein at an administration volume of 5 mL/kg; the oral group were administrated the corresponding compound through a single intragastric gavage at an administration volume of 10 mL/kg. The animals were weighed before administration, and the administration volume was calculated based on the body weight. The time for collecting samples was: 0.083 (the injection group), 0.25, 0.5, 1, 2, 4, 6, 8, 24 h. About 200 μL of whole blood was collected from the jugular vein at each time point to prepare plasma for concentration determination by high-performance liquid chromatography-tandem mass spectrometry (LC-MS/MS). All animals were euthanized by CO2 anesthesia after collecting the PK samples at the last time point. The plasma concentrations were processed by non-compartmental model of WinNonlin™ Version 6.3 (Pharsight, Mountain View, Calif.) pharmacokinetic software, and the pharmacokinetic parameters were calculated by the linear logarithm trapezoidal method.

Data set [3] in a line: In vivo pharmacokinetic assay in dogs. Details: species or system Male Beagle dogs. The settings on record: Oral, 30 mg/kg. How it is done: Male Beagle dogs older than 6 months of age were selected. On the day of the assay, the animals were given the corresponding compound by single injection in the cephalic or saphenous vein in a volume of 1 mL/kg for the intravenous group; and by single gavage in a volume of 5 mL/kg for the oral group. The animals were weighed before administration and the dosing volume of the compound was calculated based on their body weight. About 0.5 mL of whole blood was collected from the cephalic or saphenous vein at each time point to prepare plasma for determination of concentrations by high performance liquid chromatography-tandem mass spectrometry (LC-MS/MS). Plasma concentrations were processed using non-compartment model of WinNonlin™ Version 6.3 or above (Pharsight, Mountain View, Calif.) pharmacokinetic software, and pharmacokinetic parameters were calculated using the linear log trapezoidal method.

Data set [4] has as its system Ba/F3-TEL-FLT3-D835Y subcutaneous allograft tumor. In words: Pharmacodynamics assay of Ba/F3-TEL-FLT3-D835Y cells in mice with subcutaneous allograft tumor. The format is in vivo. Particulars: for Average tumor volume Day 0: Day 0, before dosing; for % Inhibition rate / Average tumor volume Day 15: Oral, Once a day. How it is done: The efficacy of the assay compounds in the BALB/c nude mouse model of subcutaneous allografts of Ba/F3-TEL-FLT3-D835Y cells was evaluated in vivo.
Ba/F3-TEL-FLT3-D835Y cell line was cultured in 1640 medium supplemented with 10% fetal bovine serum and 1% double antibody at 37° C. and 5% CO2, and passaged twice a week. […].
When the cells in the logarithmic growth phase reached the required number for the assay, the cells were harvested, and centrifuged at 1000 rpm for 5 min. The supernatant was removed. The cells were resuspended in culture medium, and counted using a cell counter. […]. After mixing well, the suspension was placed on ice and aspirated with a 1 ml sterile syringe. 0.2 ml of cell suspension was inoculated subcutaneously in the right armpit of each mouse. That is, each mouse was inoculated with 1×10^6 Ba/F3-TEL-FLT3-D835Y cells. After inoculation, the tumor growth was observed day by day. The mice were randomly grouped according to tumor volume when the average tumor volume reached about 175.77 mm^3. Mice were dosed according to their body weight (10 μL/g).
After the start of dosing, the body weight and tumor size of the mice were measured twice a week. Tumor volume was calculated according to the formula: Tumor volume (mm^3)=½×(a×b^2) (where a represents the long diameter and b represents the short diameter).

The nature of data set [5]: In vivo pharmacokinetic assay in mice. Details: species or system CD-1 male mice. The settings on record: male, CD-1, mouse, plasma; for Tmax: read-out: Tmax; for Vd: read-out: Vdss. How it is done: CD-1 male mice aged 7 to 10 weeks were selected. The doses for intravenous and oral administration were 1 mg/kg and 2.5 mg/kg, respectively. The mice were fasted for at least 12 hours before the administration, and resumed feeding 4 hours after the administration. The mice had free access to water throughout the assay period.
as §1, with “4,” for “4, 6,”, “30” for “200”, “saphenous” for “jugular”

For data set [6], the system named is human biphenotypic B bone marrow mononuclear leukemia cell MV4-11 subcutaneous xenograft tumor. The data set can be described thus: Inhibition of MV4-11 subcutaneous xenograft tumor in vivo. The arrangement: species or system nude mice. How it is done: In this assay, the anti-tumor effect of the compounds was evaluated using a nude mice model of subcutaneous xenograft tumor of human biphenotypic B bone marrow mononuclear leukemia cell MV4-11.
Human biphenotypic B bone marrow mononuclear leukemia cell MV4-11 was cultured in vitro in suspension with a RPMI1640 medium supplemented with 10% fetal bovine serum, 100 U/mL penicillin and 100 μg/mL streptomycin in a 5% CO2 cell incubator at 37° C. Routine passaging was performed twice a week. Cells in the logarithmic growth phase were collected, counted and then used for inoculation.
0.2 mL (1×10^7) of MV4-11 cells (plus matrigel, with a volume ratio of 1:1) were inoculated subcutaneously on the right back of each mouse. The grouping and dosing were started when the average tumor volume reached about 140-200 mm^3.
The diameter of the tumor was measured with vernier calipers twice a week. The formula for calculating the tumor volume is: V=0.5a×b^2, where a and b represent the long and short diameters of the tumor, respectively.

Data set [7] relates to human acute myeloma MOLM-13 cell line subcutaneous xenograft. In words: Inhibition of Molm-13 subcutaneous xenograft tumor in vivo. Details: species or system NOD/SCID female mice. The settings on record: for Average tumor volume Day 0: Day 0, before dosing; for % Inhibition rate on day 11 / % Inhibition rate on day 15 / Average tumor volume Day 11 / Average tumor volume Day 15: Oral, Once a day. How it is done:
The purpose of this assay is to evaluate the pharmacodynamics of the compounds in the NOD/SCID female mice model of human acute myeloma MOLM-13 cell line subcutaneous xenograft.
MOLM-13 cells were cultured in RPMI-1640 medium containing 10% fetal bovine serum. The MOLM-13 cells were collected in the exponential growth phase, and resuspended in PBS to a suitable concentration for subcutaneous tumor inoculation in […].
The assay mice were inoculated with 5×10^6 MOLM-13 cells resuspended in 0.1 ml of PBS (0.1 ml per mouse) subcutaneously on the right back. Tumor growth was regularly observed. When the tumor grew to an average volume of 98 mm^3, the mice were randomly divided into groups and administered according to tumor size and body weight of the mice.
After the start of administration, the body weight and tumor size of the mice were measured three times a week. The formula for calculating the tumor volume is: tumor volume (mm^3)=½×(a×b^2) (where a represents the long diameter and b represents the short diameter).

The mark [8] stands for this setting: Oral administration (2.5 mg/kg).
Setting [9] is: male, SD, rat, plasma, Oral, 2.5 mg/kg.
[10] abbreviates: male, SD, rat, plasma, iv, Injection, 1 mg/kg.

Values after ≈ are worked out from the molar mass of the structure shown.

As to `CCc1nc(C(N)=O)c(Nc2ccc(N3CCC4(CCN(C)CC4)CC3)c(C)c2)nc1NC1CCOCC1`, the Solubility in data set [1] (Biological medium FaSSIF, 37° C.) is 0.11 mg/mL (≈ 211 µM); in data set [1] (Biological medium FeSSIF, 37° C.), 1.11 mg/mL (≈ 2130 µM); in data set [1] (Biological medium SGF, 37° C.), 1.49 mg/mL (≈ 2860 µM); in data set [1] (Buffer solution pH 1.0, 37° C.), over 10 mg/mL; in data set [1] (Buffer solution pH 3.8, 37° C.), over 10 mg/mL; in data set [1] (Buffer solution pH 4.5, 37° C.), over 10 mg/mL. In data set [1] (Buffer solution pH 5.5, 37° C.), this compound showed a Solubility of 0.81 mg/mL (≈ 1550 µM). Further, the Cmax in data set [2] (Oral, 20 mg/kg) was determined as 483 nM; in data set [3], 527 nM. Further, the F% in data set [2] (Oral, 20 mg/kg) was 93%; in data set [3] it was 41.0%. For the same compound, the Tmax is 7.00 h in data set [2] (Oral, 20 mg/kg) and 9.00 h in data set [3]. For the same compound, the “Average tumor volume Day 0” value in data set [4] (1 mg/kg group) is reported as 176 ± 2 mm^3; in data set [4] (3 mg/kg group) it was 177 ± 2 mm^3; in data set [4] (6 mg/kg group) it was 177 ± 2 mm^3. Further, the results for the “% Inhibition rate” value in data set [4] (1 mg/kg), in data set [4] (3 mg/kg) and in data set [4] (6 mg/kg) were 62%, 80% and 103%, respectively. Moreover, the “Average tumor volume Day 15” value is reported as 1160 ± 99 mm^3 in data set [4] (1 mg/kg), 683 ± 45 mm^3 in data set [4] (3 mg/kg) and 77 ± 13 mm^3 in data set [4] (6 mg/kg).

Turning to `CCc1nc(C(N)=O)c(Nc2ccc(N3CCC4(CCN(C)CC4)CC3)c(OC)c2)nc1NC1CCOCC1` [Compound A], in data set [5] (setting [8]), the AUC(0-t) is 0.0745 µM·h, the Cmax is 13.4 nM, the bioavailability came to 7.39% and the half-life was 454 min. Moreover, the Tmax in data set [5] (setting [8]) came to 1 h. Further, in data set [5] (iv, Injection (1 mg/kg)), the AUC(0-t) came to 0.403 µM·h, the clearance worked out at 73.4 mL/min/kg, the half-life is 128 min and the Vd is 8.93 L/kg.

In data set [5] (setting [8]), `CCc1nc(C(N)=O)c(Nc2ccc(N3CCC(N4CCN(C)CC4)CC3)c(OC)c2)nc1NC1CCOCC1` [Compound B, reference compound] gave an AUC(0-t) of 0.501 µM·h, a Cmax of 85.3 nM, a bioavailability of 33.1% and a half-life of 335 min. Besides, in data set [5] (setting [8]), the Tmax turned out to be 1 h. In addition, in data set [5] (iv, Injection (1 mg/kg)), the AUC(0-t) was found to be 0.605 µM·h, the clearance was found to be 46.7 mL/min/kg, the half-life was 125 min and the Vd turned out to be 7.47 L/kg. The “% Inhibition rate on day 14” value in data set [6] (1.5 mg/kg, Oral, Once a day) is recorded as 57.7%. The “Average tumor volume Day 14” value in data set [6] (1.5 mg/kg, Oral, Once a day, Day 14) amounted to 431 mm^3. The “Average tumor volume Day 0” value in data set [6] (Day 0, one value for all groups, before dosing) was 149 mm^3. In data set [2] (setting [9]), this compound showed an area under the curve AUC(0-t) of 0.361 µM·h, a Cmax of 29.1 nM and a bioavailability of 24.6%. Further, in data set [2] (male, SD, rat, plasma, Oral, 2.5 mg/kg, read-out: Tmax), the Tmax came to 6 h. Besides, in data set [2] (setting [10]), the AUC(0-t) was found to be 0.587 µM·h, the clearance was 44 mL/min/kg and the half-life was 164 min. Also, the Vd in data set [2] (male, SD, rat, plasma, iv, Injection, 1 mg/kg, read-out: Vdss) came to 10.2 L/kg. Also, in data set [7] (15 mg/kg group), the “Average tumor volume Day 0” value stood at 98.02 mm^3. For the same compound, in data set [7] (15 mg/kg), the “% Inhibition rate on day 11” value is 59%, the “% Inhibition rate on day 15” value was 79%, the “Average tumor volume Day 11” value is on record as 401.07 mm^3 and the “Average tumor volume Day 15” value came to 566.95 mm^3. The “Average tumor volume Day 0” value in data set [4] (3 mg/kg group) is on record as 176 ± 2 mm^3. In data set [4] (3 mg/kg), the “% Inhibition rate” value is given as 68% and the “Average tumor volume Day 15” value was 993 ± 79 mm^3.

On to `CCc1nc(C(N)=O)c(Nc2ccc(N3CCC4(CCN(C)CC4)CC3)c(C)c2)nc1NC1CCOCC1` [Compound of formula (I)], for which, in data set [7] (15 mg/kg group), the “Average tumor volume Day 0” value was found to be 98.34 mm^3. For the same compound, in data set [7] (15 mg/kg), the “% Inhibition rate on day 11” value is 92%, the “% Inhibition rate on day 15” value was found to be 94%, the “Average tumor volume Day 11” value is given as 156.85 mm^3 and the “Average tumor volume Day 15” value amounted to 223.09 mm^3. Moreover, the “Average tumor volume Day 0” value in data set [7] (50 mg/kg group) amounted to 98.05 mm^3. Moreover, in data set [7] (50 mg/kg), the “% Inhibition rate on day 11” value was 106%, the “% Inhibition rate on day 15” value was determined as 104%, the “Average tumor volume Day 11” value was determined as 53.08 mm^3 and the “Average tumor volume Day 15” value came to 0 mm^3.

The values above are taken from patent US20230141887A1, “CRYSTAL FORM OF DIAZASPIROPYRAN COMPOUND” (MEDSHINE DISCOVERY INC., priority 2020, published 2023).
